Results on 34 molecules are retold here after ChEMBL document CHEMBL4184140, “Expanding the tetrahydroquinoline pharmacophore” (Bioorg Med Chem Lett, 2017).

The source made the active and inactive calls. The rule behind the calls is not given here.

The test relates to Mycobacterium tuberculosis variant bovis. Put plainly: Antitubercular activity against Mycobacterium bovis. The format is functional, organism-based.
With `CC(=O)N1c2ccccc2[C@H]2C=CC[C@H]2[C@H]1c1ccc(Cl)cc1`, the outcome was inactive. For `Cc1ccccc1[C@H]1Nc2ccccc2[C@H]2[C@@H](O)[C@@H](O)C[C@H]21`, the result was inactive.

In the case of `Clc1ccc([C@H]2Nc3ccccc3[C@H]3C=CC[C@H]32)cc1`, the result was inactive. As for `O[C@@H]1[C@@H]2c3cc(Br)ccc3N[C@H](c3ccccc3)[C@@H]2C[C@@H]1O`, the entry is “inactive”; as for `O=[N+]([O-])c1ccc2c(c1)N[C@H](c1ccccc1)[C@@H]1CC=C[C@H]21`, “inactive”. Take `C=CCO[C@@H]1[C@@H]2c3ccccc3N(C(C)=O)[C@H](c3ccc(Cl)cc3)[C@@H]2C[C@H]1N=[N+]=[N-]`: the result was inactive.

On to `CC(=O)N1c2cc([N+](=O)[O-])ccc2[C@@H]2[C@@H](C[C@@H]3O[C@H]23)[C@H]1c1ccccc1`, for which the result was inactive.

With `O[C@@H]1[C@@H]2c3ccccc3N[C@H](c3ccc(Cl)cc3)[C@@H]2C[C@@H]1O`, the result was inactive. Take `O[C@@H]1[C@@H]2c3ccc(F)cc3N[C@H](c3ccccc3)[C@@H]2C[C@@H]1O`: the result was inactive.

Turning to `O[C@@H]1[C@@H]2c3ccccc3N[C@H](c3ccccc3)[C@@H]2C[C@@H]1O`, the outcome was inactive. As to `CC(=O)N1c2cc([N+](=O)[O-])ccc2[C@H]2[C@@H](O)[C@H](N=[N+]=[N-])C[C@H]2[C@H]1c1ccccc1`, the outcome was inactive. To `C=CCO[C@@H]1[C@@H]2c3ccccc3N(C(C)=O)[C@H](c3cccc(Br)c3)[C@@H]2C[C@H]1N=[N+]=[N-]` belongs “inactive”. As to `CC(=O)N1c2ccccc2[C@@H]2[C@@H](C[C@@H]3O[C@H]23)[C@H]1c1ccccc1`, the outcome was inactive. For `CC(=O)N1c2ccccc2[C@H]2[C@@H](O)[C@H](N=[N+]=[N-])C[C@H]2[C@H]1c1ccccc1`, the outcome was inactive. As for `CC(=O)N1c2ccccc2[C@H]2[C@@H](O)[C@H](N=[N+]=[N-])C[C@H]2[C@H]1c1cccc(Br)c1`, the entry is “inactive”; as for `CC(=O)N1c2ccccc2[C@H]2[C@@H](O)[C@@H](O)C[C@H]2[C@H]1c1ccccc1`, “inactive”; as for `COC(=O)C[C@@H]1[C@H](C(=O)OC)c2ccccc2N(C(C)=O)[C@@H]1c1ccccc1`, “inactive”.

With `CC(=O)N1c2ccccc2[C@@H]2[C@@H](C[C@@H]3O[C@H]23)[C@H]1c1cccc(Br)c1`, the result was inactive.

For `Brc1ccc2c(c1)[C@H]1C=CC[C@H]1[C@@H](c1ccccc1)N2`, the outcome was inactive. With `CC(=O)N1c2ccccc2[C@H]2C=CC[C@H]2[C@H]1c1cccc(Br)c1`, the result was inactive.

As to `CC(=O)N1c2ccc(Br)cc2[C@H]2C=CC[C@H]2[C@H]1c1ccccc1`, the result was inactive.

In the case of `C=CCO[C@@H]1[C@@H]2c3ccccc3N(C(C)=O)[C@H](c3ccccc3)[C@@H]2C[C@H]1N=[N+]=[N-]`, the result was inactive. Turning to `CC(=O)N1c2ccccc2[C@H]2C=CC[C@H]2[C@H]1c1ccccc1`, the outcome was inactive. As for `Cc1ccccc1[C@H]1Nc2ccccc2[C@H]2C=CC[C@H]21`, the result was inactive.

For the molecule `CC(=O)N1c2cc([N+](=O)[O-])ccc2[C@H]2C=CC[C@H]2[C@H]1c1ccccc1`, the outcome was inactive. With `C=CCO[C@H]1C(n2cc(-c3ccccc3)nn2)C[C@@H]2[C@H]1c1ccccc1N(C(C)=O)[C@@H]2c1ccccc1` (single isomer, unassigned), the result was inactive.

For `Brc1cccc([C@H]2Nc3ccccc3[C@H]3C=CC[C@H]32)c1`, the result was inactive.

Regarding `O[C@@H]1[C@@H]2c3ccccc3N[C@H](c3cccc(Br)c3)[C@@H]2C[C@@H]1O`, the result was inactive. For `Fc1ccc2c(c1)N[C@H](c1ccccc1)[C@@H]1CC=C[C@H]21`, the outcome was inactive. For `O=[N+]([O-])c1ccc2c(c1)N[C@H](c1ccccc1)[C@@H]1C[C@H](O)[C@H](O)[C@H]21`, the outcome was inactive. Regarding `C1=C[C@@H]2c3ccccc3N[C@H](c3ccccc3)[C@@H]2C1`, the outcome was inactive. In the case of `CC(=O)N1c2ccccc2[C@H]2[C@@H](O)[C@H](N=[N+]=[N-])C[C@H]2[C@H]1c1ccc(Cl)cc1`, the result was inactive.

For `CC(=O)N1c2ccccc2[C@H]2C=CC[C@H]2[C@H]1c1ccccc1C`, the result was inactive.

With `CC(=O)N1c2ccccc2[C@@H]2[C@@H](C[C@@H]3O[C@H]23)[C@H]1c1ccc(Cl)cc1`, the result was inactive.
